# Marks after values point to notes of the source that are not given here. Where no end group is shown, it is not given here.
# Assays:
# PBMC [1] = experiment: PBMC viability, MTS assay; format: cell-based, human; conditions: 24 h
# Protocol: (§1) Peripheral blood was drawn from healthy volunteers (with approval from the relevant ethical committee in Denmark). Heparinized blood was diluted 1/1 v/v with RPMI and were subjected to Ficoll density centrifugation within 2 h of drawing. Plasma was collected from the top from individual donors and was kept on ice until it was used at 2% in the culture medium (autologous culture medium). Isolated PBMC were resuspended in autologous culture medium and seeded in 96-well culture plates with 255.000 cells per well in a total of 200 μl. […] The concentrations used for stimulation were optimized on 3 different donors in initial experiments, for LPS two different concentrations were used to be sure to be on a cytokine level that is possible to modulate. In some experiments PBMC were treated with Dexamethason and Indomethacin alone and together with LPS or LTA as a control on downregulation of inflammatory cytokines. The supernatants were collected after incubation at 37° C. for 24 hours, and stored at −80° C. until cytokine measurement. Viability was measured by Alamar Blue (Biosource, DALL 1100) in all experiments and in some cases also by MTS (Promega) according to manufacturer's instruction and was in some experiments also judged by counting of the cells by a Nucleocounter.
# PBMC [2] = experiment: PBMC viability, Alamar Blue; format: cell-based, human
# Protocol: as §1
# [3] = system: DSS-induced colitis in the mouse; experiment: 10-day DSS-induced colitis, Disease Activity Index (Example 6); format: in vivo; design: key: clinical Disease Activity Index (stool, bleeding, weight loss)
# Protocol: Daily clinical assessment of DSS-treated animals was carried out, with the calculation of a validated clinical Disease Activity Index (DAI) ranging from 0 to 4 according to the following parameters: stool consistency, presence or absence of rectal bleeding and weight loss:
# Example 6 was carried out essentially as described in Example 5. The differences are indicated below.
# Animals were divided into 9 experimental groups.
# The animals in group F received one dose i.v. and another dose s.c. (12 hours after the i.v. dose) of the corresponding test item for 10 consecutive days.
# The animals in group G received one dose every two days of the corresponding test item for 10 consecutive days.
# Methylprednisolone was given orally at a dose of 1 mg/kg (group H) and 10 mg/kg (group J) in a dosing volume of 5 ml/kg body weight, once daily for 10 consecutive days.
# [4] = system: TNF production in supernatants from immature dendritic cells; experiment: TNF production, immature dendritic cells (MUTZ-3 derived); format: cell-based, human
# Protocol: To generate a dendritoid cell line, the human myeloid leukaemia cell lines MUTZ-3 (1×10^5 cells/ml) was differentiated for 7 days in the presence of rhGM-CSF (150 ng/ml) and rhIL-4 (50 ng/ml) into immature DCs. Medium was exchanged every 2-3 days.
# Cytokine production in supernatants was measured by flow cytometry with a human inflammation cytometric bead array (CBA) according to manufacturer's instructions (BD) on a FACSarray flow cytometer. The following cytokines were measured: IL-8, IL-1β, IL-10, TNF, IL-12 p70, IL-6. In some experiments, cytokines were measured by ELISA kits from R&D systems (IL-10, TNF-α, IL-1β) according to the manufacturer' instruction.
substance,measurement,setting,value
"hBD2: human beta defensin 2, SEQ ID NO:2; produced recombinantly in E. coli (Example 1); hBD2 of Tables 16-18 was prepared by chemical synthesis (GIGDPVTCLKSGAICHPVFCPRRYKQIGTCGLPGTKCCKKP; ends and bridges not checked; cysteine pairing not given here; listed as Homo sapiens)","Viability, MTS","PBMC [1]; LPS 0.6 ng/ml, hBD2 1 μg/ml",1.5 Abs 490 nm
same,"Viability, MTS","PBMC [1]; LPS 0.6 ng/ml, hBD2 10 μg/ml",2.0 Abs 490 nm
same,"Viability, MTS","PBMC [1]; LPS 0.6 ng/ml, hBD2 100 μg/ml",1.6 Abs 490 nm
same,"Viability, MTS","PBMC [1]; LPS 20 ng/ml, hBD2 1 μg/ml",1.6 Abs 490 nm
same,"Viability, MTS","PBMC [1]; LPS 20 ng/ml, hBD2 10 μg/ml",1.8 Abs 490 nm
same,"Viability, MTS","PBMC [1]; LPS 20 ng/ml, hBD2 100 μg/ml",1.9 Abs 490 nm
same,"Viability, MTS","PBMC [1]; Medium, hBD2 1 μg/ml",1.3 Abs 490 nm
same,"Viability, MTS","PBMC [1]; Medium, hBD2 10 μg/ml",1.5 Abs 490 nm
same,"Viability, MTS","PBMC [1]; Medium, hBD2 100 μg/ml",1.2 Abs 490 nm
same,"Viability, Alamar Blue","PBMC [2]; LPS 0.6 ng/ml, hBD2 1 μg/ml",4230588 RFU
same,"Viability, Alamar Blue","PBMC [2]; LPS 0.6 ng/ml, hBD2 10 μg/ml",4664362 RFU
same,"Viability, Alamar Blue","PBMC [2]; LPS 0.6 ng/ml, hBD2 100 μg/ml",4831188 RFU
same,"Viability, Alamar Blue","PBMC [2]; LPS 20 ng/ml, hBD2 1 μg/ml",4561739 RFU
same,"Viability, Alamar Blue","PBMC [2]; LPS 20 ng/ml, hBD2 10 μg/ml",4623818 RFU
same,"Viability, Alamar Blue","PBMC [2]; LPS 20 ng/ml, hBD2 100 μg/ml",4765256 RFU
same,"Viability, Alamar Blue","PBMC [2]; LTA 1.25 μg/ml, hBD2 1 μg/ml",4148294 RFU
same,"Viability, Alamar Blue","PBMC [2]; LTA 1.25 μg/ml, hBD2 10 μg/ml",4677870 RFU
same,"Viability, Alamar Blue","PBMC [2]; LTA 1.25 μg/ml, hBD2 100 μg/ml",4664185 RFU
same,"Viability, Alamar Blue","PBMC [2]; Medium, hBD2 1 μg/ml",4064143 RFU
same,"Viability, Alamar Blue","PBMC [2]; Medium, hBD2 10 μg/ml",3683369 RFU
same,"Viability, Alamar Blue","PBMC [2]; Medium, hBD2 100 μg/ml",3950053 RFU
same,cytotoxic effect on the cells,"PBMC [2]; human PBMC, MTS and Alamar Blue, Tables 4 and 5",no cytotoxic effect
same,"DAI score, mean","[3]; Group B, 1 mg/kg i.v., Day 1",0.00
same,"DAI score, mean","[3]; Group B, 1 mg/kg i.v., Day 2",0.10
same,"DAI score, mean","[3]; Group B, 1 mg/kg i.v., Day 3",0.20
same,"DAI score, mean","[3]; Group B, 1 mg/kg i.v., Day 4",0.40
same,"DAI score, mean","[3]; Group B, 1 mg/kg i.v., Day 5",0.30
same,"DAI score, mean","[3]; Group B, 1 mg/kg i.v., Day 6",2.30*
same,"DAI score, mean","[3]; Group B, 1 mg/kg i.v., Day 7",4.40*
same,"DAI score, mean","[3]; Group B, 1 mg/kg i.v., Day 8",6.89
same,"DAI score, mean","[3]; Group B, 1 mg/kg i.v., Day 9",5.00*
same,"DAI score, mean","[3]; Group B, 1 mg/kg i.v., Day 10",5.78*
same,"DAI score, mean","[3]; Group C, 0.1 mg/kg i.v., Day 1",0.00
same,"DAI score, mean","[3]; Group C, 0.1 mg/kg i.v., Day 2",0.44
same,"DAI score, mean","[3]; Group C, 0.1 mg/kg i.v., Day 3",0.89
same,"DAI score, mean","[3]; Group C, 0.1 mg/kg i.v., Day 4",0.56
same,"DAI score, mean","[3]; Group C, 0.1 mg/kg i.v., Day 5",0.78
same,"DAI score, mean","[3]; Group C, 0.1 mg/kg i.v., Day 6",1.56**
same,"DAI score, mean","[3]; Group C, 0.1 mg/kg i.v., Day 7",4.13*
same,"DAI score, mean","[3]; Group C, 0.1 mg/kg i.v., Day 8",5.43*
same,"DAI score, mean","[3]; Group C, 0.1 mg/kg i.v., Day 9",6.29*
same,"DAI score, mean","[3]; Group C, 0.1 mg/kg i.v., Day 10",6.86
same,"DAI score, mean","[3]; Group D, 0.01 mg/kg i.v., Day 1",0.00
same,"DAI score, mean","[3]; Group D, 0.01 mg/kg i.v., Day 2",0.00
same,"DAI score, mean","[3]; Group D, 0.01 mg/kg i.v., Day 3",0.30
same,"DAI score, mean","[3]; Group D, 0.01 mg/kg i.v., Day 4",0.40
same,"DAI score, mean","[3]; Group D, 0.01 mg/kg i.v., Day 5",1.60
same,"DAI score, mean","[3]; Group D, 0.01 mg/kg i.v., Day 6",2.70
same,"DAI score, mean","[3]; Group D, 0.01 mg/kg i.v., Day 7",6.50
same,"DAI score, mean","[3]; Group D, 0.01 mg/kg i.v., Day 8",6.20*
same,"DAI score, mean","[3]; Group D, 0.01 mg/kg i.v., Day 9",4.60***
same,"DAI score, mean","[3]; Group D, 0.01 mg/kg i.v., Day 10",5.20**
same,"DAI score, mean","[3]; Group E, 0.001 mg/kg i.v., Day 1",0.00
same,"DAI score, mean","[3]; Group E, 0.001 mg/kg i.v., Day 2",0.00
same,"DAI score, mean","[3]; Group E, 0.001 mg/kg i.v., Day 3",0.10
same,"DAI score, mean","[3]; Group E, 0.001 mg/kg i.v., Day 4",0.20
same,"DAI score, mean","[3]; Group E, 0.001 mg/kg i.v., Day 5",0.40
same,"DAI score, mean","[3]; Group E, 0.001 mg/kg i.v., Day 6",3.40
same,"DAI score, mean","[3]; Group E, 0.001 mg/kg i.v., Day 7",7.11
same,"DAI score, mean","[3]; Group E, 0.001 mg/kg i.v., Day 8",8.56
same,"DAI score, mean","[3]; Group E, 0.001 mg/kg i.v., Day 9",5.89**
same,"DAI score, mean","[3]; Group E, 0.001 mg/kg i.v., Day 10",6.67
same,"DAI score, mean","[3]; Group F, 0.1 mg/kg twice daily i.v. + s.c., Day 1",0.00
same,"DAI score, mean","[3]; Group F, 0.1 mg/kg twice daily i.v. + s.c., Day 2",0.30
same,"DAI score, mean","[3]; Group F, 0.1 mg/kg twice daily i.v. + s.c., Day 3",0.70
same,"DAI score, mean","[3]; Group F, 0.1 mg/kg twice daily i.v. + s.c., Day 4",0.70
same,"DAI score, mean","[3]; Group F, 0.1 mg/kg twice daily i.v. + s.c., Day 5",0.60
same,"DAI score, mean","[3]; Group F, 0.1 mg/kg twice daily i.v. + s.c., Day 6",0.70***
same,"DAI score, mean","[3]; Group F, 0.1 mg/kg twice daily i.v. + s.c., Day 7",3.50**
same,"DAI score, mean","[3]; Group F, 0.1 mg/kg twice daily i.v. + s.c., Day 8",4.00***
same,"DAI score, mean","[3]; Group F, 0.1 mg/kg twice daily i.v. + s.c., Day 9",2.90***
same,"DAI score, mean","[3]; Group F, 0.1 mg/kg twice daily i.v. + s.c., Day 10",4.50***
same,"DAI score, mean","[3]; Group G, 0.1 mg/kg i.v. every 2. day, Day 1",0.00
same,"DAI score, mean","[3]; Group G, 0.1 mg/kg i.v. every 2. day, Day 2",0.20
same,"DAI score, mean","[3]; Group G, 0.1 mg/kg i.v. every 2. day, Day 3",0.40
same,"DAI score, mean","[3]; Group G, 0.1 mg/kg i.v. every 2. day, Day 4",0.50
same,"DAI score, mean","[3]; Group G, 0.1 mg/kg i.v. every 2. day, Day 5",0.50
same,"DAI score, mean","[3]; Group G, 0.1 mg/kg i.v. every 2. day, Day 6",2.90
same,"DAI score, mean","[3]; Group G, 0.1 mg/kg i.v. every 2. day, Day 7",6.50
same,"DAI score, mean","[3]; Group G, 0.1 mg/kg i.v. every 2. day, Day 8",8.70
same,"DAI score, mean","[3]; Group G, 0.1 mg/kg i.v. every 2. day, Day 9",7.50
same,"DAI score, mean","[3]; Group G, 0.1 mg/kg i.v. every 2. day, Day 10",6.56
same,TNF,"[4]; LPS 1.5 μg/ml, hBD2 1 μg/ml",18.04 pg/mL
same,TNF,"[4]; LPS 1.5 μg/ml, hBD2 10 μg/ml",13.8 pg/mL
same,TNF,"[4]; LPS 1.5 μg/ml, hBD2 100 μg/ml",7.66 pg/mL
same,TNF,"[4]; LTA 1.5 μg/ml, hBD2 1 μg/ml",0.00 pg/mL
same,TNF,"[4]; LTA 1.5 μg/ml, hBD2 10 μg/ml",2.76 pg/mL
same,TNF,"[4]; LTA 1.5 μg/ml, hBD2 100 μg/ml",5.22 pg/mL
same,TNF,"[4]; Medium, hBD2 1 μg/ml",4.64 pg/mL
same,TNF,"[4]; Medium, hBD2 10 μg/ml",1.89 pg/mL
same,TNF,"[4]; Medium, hBD2 100 μg/ml",0.00 pg/mL
